The test system of series [1] is human keratinocytes HaCaT. In words: Apoptosis by FACS analysis (Propidium Iodide staining). Type of series: cell-based. To be noted: 24 hours. The protocol: Apoptosis effect of the sargachromenol of the present invention on human keratinocytes was investigated by FACS and TUNEL analysis. First, for FACS analysis, HaCaT cells were cultured in the same manner as in Example 2-1, transferred to a 10 cm plate, with 2×10^6 cells/well, and incubated at 37° C. in a 5% CO2 incubator for 24 hours. After treating the cells with 0, 1, 2 or 5 μg/mL sargachromenol, they were incubated at 37° C. in a 5% CO2 incubator for 24 hours. Then, the cells were released from the plate using trypsin, and fixed using 4% paraformaldehyde. The fixed cells were treated with 70% alcohol to increase cell membrane permeability. Then, the cells were stained with Propidium Iodide (PI) solution for 30 minutes, and subjected to FACS analysis. Cells treated with DMSO only and not with sargachromenol were used as control group.
For orientation: Flow cytometry measures light scatter and fluorescence of single cells or particles in a stream.

Series [2] has as its system caspase-8, caspase-9 and caspase-3 in human keratinocytes HaCaT. Kind of series: Western blot of apoptosis-related factors after pre-treatment and UVB irradiation. It is filed as cell-based. The protocol: In Example 4, it was confirmed that UV further enhances the apoptosis of human keratinocytes by sargachromenol. Thus, it was investigated whether UV has effect on sargachromenol-induced apoptosis-related factors. First, human keratinocytes HaCaT cells were cultured in the same manner as in Example 2-1 and transferred to a 10 cm plate, at 2×10^6 cells/well. After about 18 hours of serum starvation, each well was pre-treated with 0, 2 or […] sargachromenol for 30 minutes and UVB was irradiated. 8 hours later, the cells were lysed using RIPA buffer [12 mM EDTA, 137 mM NaCl, 20 mM Tris-HCl (pH 8.0), 1 mM Na3VO4 (Sigma-Aldrich, USA) 10 mM NaF (Sigma), 1 mM PMSF (Sigma), 1% Triton X-100, 10% glycerol and protease inhibitor cocktail (Roche, Germany)]. Electrophoresis (SDS-PAGE) was carried out after determination of protein concentration. Western blot analysis was carried out on the isolated protein as in Example 3. Cells not treated with sargachromenol were used as control group.

Series [3] deals with caspase-8 and caspase-3 in human keratinocytes HaCaT. Kind of series: Western blot of apoptosis-related factors. It is filed as cell-based. The procedure:
Human keratinocytes HaCaT cells were cultured in the same manner as in Example 2-1 and transferred to a 10 cm plate, at 2×10^6 cells/well. After about 18 hours of serum starvation, the cells were treated with 0, 1, 2 or 5 μg/mL sargachromenol. 18 hours later, the cells were lysed using RIPA buffer [12 mM EDTA, 137 mM NaCl, 20 mM Tris-HCl (pH 8.0), 1 mM Na3VO4 (Sigma-Aldrich, USA) 10 mM NaF (Sigma), 1 mM PMSF (Sigma), 1% Triton X-100, 10% glycerol and protease inhibitor cocktail (Roche, Germany)]. The lysed cells were put in a 1.5 mL tube and, after pipetting, put on ice for 20 minutes. The lysate was centrifuged at 14000 rpm for 20 minutes, and protein was isolated from the supernatant. Sample concentration of the isolated protein was determined using a BCA protein analysis kit (Pierce, Rockford, Ill.) and electrophoresis (SDS-PAGE) was carried out. Western blot analysis was carried out on the protein isolated by the electrophoresis. Western blot analysis was carried out as follows. After electrophoresis of the sample, the protein was transferred from the gel to a polyvinylidene fluoride membrane (Pall Corporation). Then, after blocking the membrane at room temperature for 2 hours using 3% BSA solution (Amresco, USA), it was treated with primary antibodies and reaction was carried out at room temperature for 2 hours. The primary antibodies were anti-caspase-3 antibody, anti-caspase-8 antibody and anti-actin antibody (Cell Signaling Technology, Beverly, Mass.), which are antibodies associated in apoptosis-related signaling. After reaction with the primary antibodies, it was washed with TBS for about 15 minutes and further reacted for 45 minutes by treating with secondary antibodies. The secondary antibodies were goat anti-mouse antibody and goat anti-rabbit antibody (Zymed, San Francisco, USA). Then, after washing sufficiently with TBS for over 30 minutes, protein was identified using an ECL detection kit (Santa Cruz). Cells not treated with sargachromenol were used as control group.
In general terms: Immunoblotting shows a protein as a band on a membrane.

Series [4] can be described thus: Cytotoxicity analysis by MTT cell viability assay. It is filed as cell-based, human. To be noted: human, HaCaT keratinocytes. The protocol: (§1) Cytotoxicity effect of the sargachromenol of the present invention isolated and purified in Example 1 on human keratinocytes HaCaT was investigated by MTT cell viability analysis.
(§2) HaCaT cells were obtained from Professor N. Fusenig of the German Cancer Research Institute. The HaCaT cells were incubated in DMEM medium containing 10% FBS (Hyclone), 100 unit/mL penicillin and 100 μg/mL streptomycin at 37° C., in a 5% CO2 incubator. During the incubation, cell viability and number of cells were measured periodically using a hemacytometer (Neubauer, Germany) by the trypan blue exclusion method. In all experiments, initial cell viability was maintained over 95%.
(§3) The cultured HaCaT cells were transferred to a 96-well plate, with 5×10^4 cells/well, and incubated at 37° C. in a 5% CO2 incubator for 24 hours. Then, the cultured HaCaT cells were treated with 0, 1, 2, 5 or 10 μg/mL sargachromenol, and further incubated at 37° C. in a 5% CO2 incubator for 24 hours. Then, without removing the medium, each well was treated with 5 mg/mL MTT reagent at a concentration of 20 μL/100 μL, and incubated for 2 hours. Subsequently, after removing the medium, 150 μL of DMSO was added to each well and cell viability was analyzed by measuring absorbance at 540 nm using an ELISA reader (Molecular Devices, USA). Cells non-treated with sargachromenol were used as control group. Cell viability was calculated as relative value of that of the control group (100%).

Series [5] concerns human keratinocytes HaCaT. Kind of series: Cytotoxicity analysis by MTT cell viability assay. It is filed as cell-based. To be noted: 0, 1, 2, 5 or 10 μg/mL, 24 hours. The protocol:
as §1, §2, §3
(In general: Formazan colour is commonly taken as a measure of viable cells.)

The test system of series [6] is UVB irradiated human keratinocytes HaCaT. In words: MTT cell viability after sargachromenol pre-treatment and UVB irradiation. It is filed as cell-based. The procedure:
Synergic apoptosis effect by UV and sargachromenol on human keratinocytes was investigated. HaCaT cells were cultured in the same manner as in Example 2-1 and transferred to a 6-well plate, at 3×10^5 cells/well. After about 12 hours of serum starvation, each well was pre-treated with 0, 0.5, 1, 2, 5 or 10 μg/mL sargachromenol, and UVB was irradiated at 150 J/m^2 (FS24T12/UVB/HO, Voltare Co., Fairfield, Conn., USA, 290-320 nm). 18 hours later, without removing the medium, each well was treated with 5 mg/mL MTT reagent at a concentration of 20 μL/100 μL, and incubated for 2 hours. Subsequently, after removing the medium, 150 μL of DMSO was added to each well and cell viability was analyzed by measuring absorbance at 540 nm using a spectrophotometer. Cells non-treated with sargachromenol were used as control group. Cell viability was calculated as relative value of that of the control group (100%).

Another series has as its system nerve cell. To be noted: Chi Kwan Tsang et al, Neuroscience, 2005; cited from earlier work.
For series [7], the system named is human keratinocytes HaCaT. Kind of series: Apoptosis by TUNEL analysis. Type of series: cell-based. To be noted: increasing concentration, 24 hours. The protocol: For TUNEL analysis, the cells were incubated for 24 hours as above, and transferred to a chamber slide using an ApopTag® fluorescein in situ apoptosis detection kit. After adhering the cells to the bottom well, they were washed with pH 7.4 PBS solution. The chamber slide was immersed in PBS solution of 4% paraformaldehyde for 30 minutes at room temperature in order to completely fix the cells. And, the cells were washed with PBS and immersed in blocking solution (1% H2O2 in methanol) for 30 minutes at room temperature in order to inhibit the action of endogenous peroxidase. Then, the cells were washed with PBS and immersed in 0.1% sodium citrate solution containing 0.1% Triton X-100 at 4° C. for 2 minutes in order to make the cells permeable. For labeling, the cells were washed with PBS two more times and diluted TUNEL reaction mixture was added to the slide. After incubating in a 37° C. humidified chamber for 60 minutes, the slide was washed with PBS. Then, the slide was further incubated in TBS solution containing 1% BSA and 5% FBS for 20 minutes. After adding anti-fluorescein antibody conjugated with horse-radish peroxidase to the culture medium and reacting at 37° C. for 1 hour, the slide was washed with PBS and DAB-matrix solution was added. Hematoxylin solution was added for counter staining. […]

Where only a bound is given, the exact number is not on record here.

For orientation: viability means the share of living cells, or the viability signal relative to a control. On to `CC(C)=CCC/C(=C/CC/C(C)=C/CCC1(C)C=Cc2cc(O)cc(C)c2O1)C(=O)O` (centres unmarked) [sargachromenol], for which the “apoptosis effect, concentration comparison (FACS)” value in series [1] (5 μg/mL versus 1 μg/mL) is on record as “better at treatment with 5 μg/mL than 1 μg/mL”. Further, in series [1] (1, 2 or 5 μg/mL, control DMSO only), the “apoptosis effect versus control group (FACS)” value is recorded as “superior in the cells treated with sargachromenol than in the control group”. For the same compound, the activation of caspase entry in series [2] (2 or 5 μg/mL sargachromenol only, no UVB, 8 hours) was “activation of caspase was not observed”; in series [3] (5 μg/mL sargachromenol only, 18 hours later), “Activation of caspase was observed”. The cleaved caspases entry in series [2] (pre-treated with sargachromenol and irradiated with UVB, 8 hour later) was “cleaved caspase-8, caspase-9 and caspase-3 were observed”. In series [3] (0, 1, 2 or 5 μg/mL, higher concentration, no UV), the “cleavage of caspase-8 and caspase-3” value was “caspase-8 and caspase-3 were cleaved”. In addition, in series [3] (0, 1, 2 or 5 μg/mL, no UV), the “quantity of cleaved protein” value is “increased in a concentration-dependent manner”. The compound further registered a viability at 24 h, 5 μg/mL in series [4] (5 μg/mL sargachromenol only, without UV irradiation) of at least 40%. The cytotoxicity at 24 h, 5 μg/mL in series [4] (5 μg/mL sargachromenol, 24 hours, relative to control group (100%), no UV, read-out: reduction of cell viability) was found to be 40%. In series [5], the “cell viability, concentration dependence” value is “cell viability decreased as the concentration of sargachromenol increased”. Moreover, the viability at 1 µg/mL in series [6] (Homo sapiens, HaCaT, light or radiation study, 1 μg/mL pre-treatment, UVB 150 J/m^2, 18 hours later) was around 25%. In addition, the “apoptosis versus cells without UV” value in series [6] (pre-treated with sargachromenol and irradiated with UV, compared with same condition without UV) is given as “much more increased apoptosis”. Besides, in the series with nerve cell, the “NGF (nerve growth factor)-dependent nerve cell growth promoting activity” value is “reported to have NGF (nerve growth factor)-dependent nerve cell growth promoting activity”. Moreover, in series [7], the “number of TUNEL-positive (dead) cells” value is on record as “increased as the concentration of the sargachromenol of the present invention increased”.

The values are drawn from patent US8217074B2, “Use of sargachromenol” (Catholic University Industry Academic Cooperation Foundation, priority 2007, dated 2012).
